# From patent US6087119A, “Method for determining the catalytic activity of factor IXa” (Roche Diagnostics GmbH, priority 1996, dated 2000)
# Square brackets hold non-standard residues; d marks the D form. Peptide text beside a SMILES is read from it. * marks the point of attachment. dChg = N[C@@H](C(=O)O)C1CCCCC1; pNA = O=[N+]([O-])c1ccc(N*)cc1; Ms = CS(=O)(=O)*
# Tests used:
# rFIXa (human) = rFIXa (human) (Homo sapiens, UniProt P00740); experiment: Kinetics of cleavage of chromogenic peptide substrates by rFIXa with ethylene glycol (Lineweaver Burk); format: biochemical; parameters: coding for the FIX protease domain from amino acid position 181 to 415; Met (ATG start codon) (N); made in house; settings: pH 7.4
# Chain of rFIXa (human) (P00740 227-461): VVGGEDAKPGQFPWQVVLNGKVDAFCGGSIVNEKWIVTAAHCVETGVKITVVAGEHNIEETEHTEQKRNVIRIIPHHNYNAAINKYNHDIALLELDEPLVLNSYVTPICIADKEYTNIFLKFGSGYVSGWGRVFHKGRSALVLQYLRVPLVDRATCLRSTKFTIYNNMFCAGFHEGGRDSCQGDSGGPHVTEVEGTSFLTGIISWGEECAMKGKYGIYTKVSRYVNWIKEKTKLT
# Chain of rFIXa (human) (P00740 131-226): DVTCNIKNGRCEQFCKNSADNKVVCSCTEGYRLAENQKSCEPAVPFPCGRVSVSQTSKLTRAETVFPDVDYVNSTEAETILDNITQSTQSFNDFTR
# Method: (§1) MeSO2 -D-HHT-Gly-Arg-pNA (0.102-1.02 mmol/l)
# 0.48 μmol/l rFIXa (human)
# MOC-D-Nle-Gly-Arg-pNA (0.102-1.02 mmol/l)
# MeSO2 -D-CHG-Gly-Arg-pNA (0.102-1.02 mmol/l)
# 0.28 μmol/l rFIXa (human)
# (§2) The kinetic constants (Kcat /Km) were determined graphically according to Lineweaver Burk (Km and Kcat cannot be determined separately since the straight lines go through the origin).
# native FIXa (human) = native FIXa (human) (Homo sapiens, UniProt P00740); experiment: Kinetics of cleavage of chromogenic peptide substrate by native FIXa with ethylene glycol (Lineweaver Burk); format: biochemical; parameters: 0.14 μmol/l native FIXa (human); settings: native FIXa 0.29 μmol/l, pH 7.4
# Chain of native FIXa (human) (P00740 227-461 limits assumed): as the sequence (P00740 227-461) above
# Chain of native FIXa (human) (P00740 47-191 partner limits assumed): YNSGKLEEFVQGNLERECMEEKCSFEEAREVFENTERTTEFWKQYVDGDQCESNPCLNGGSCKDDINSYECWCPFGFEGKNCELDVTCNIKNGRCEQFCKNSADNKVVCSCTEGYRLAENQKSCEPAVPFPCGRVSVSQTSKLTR
# Method: as §1
# 0.29 μmol/l native FIXa (human)
# as §2
"kkat /Km (rFIXa (human); substrate MeSO2-D-CHG-Gly-Arg-pNA, rFIXa […], 8% ethylene glycol) [M⁻¹ s⁻¹]","kkat /Km (rFIXa (human); substrate MeSO2-D-CHG-Gly-Arg-pNA, rFIXa […], 16% ethylene glycol) [M⁻¹ s⁻¹]","kkat /Km (rFIXa (human); substrate MeSO2-D-CHG-Gly-Arg-pNA, rFIXa […], 25% ethylene glycol) [M⁻¹ s⁻¹]","kkat /Km (rFIXa (human); substrate MeSO2-D-CHG-Gly-Arg-pNA, rFIXa […], 33% ethylene glycol) [M⁻¹ s⁻¹]","kkat /Km (rFIXa (human); substrate MeSO2-D-CHG-Gly-Arg-pNA, rFIXa […], 41% ethylene glycol) [M⁻¹ s⁻¹]","kkat /Km (rFIXa (human); substrate MeSO2-D-CHG-Gly-Arg-pNA, rFIXa […], 50% ethylene glycol) [M⁻¹ s⁻¹]",kkat /Km (native FIXa (human); 8% ethylene glycol) [M⁻¹ s⁻¹],kkat /Km (native FIXa (human); 16% ethylene glycol) [M⁻¹ s⁻¹],kkat /Km (native FIXa (human); 25% ethylene glycol) [M⁻¹ s⁻¹],kkat /Km (native FIXa (human); 33% ethylene glycol) [M⁻¹ s⁻¹],kkat /Km (native FIXa (human); 41% ethylene glycol) [M⁻¹ s⁻¹],kkat /Km (native FIXa (human); 50% ethylene glycol) [M⁻¹ s⁻¹],"kkat /Km (rFIXa (human); rFIXa 0.48 μmol/l, 8% ethylene glycol) [M⁻¹ s⁻¹]","kkat /Km (rFIXa (human); rFIXa 0.48 μmol/l, 16% ethylene glycol) [M⁻¹ s⁻¹]","kkat /Km (rFIXa (human); rFIXa 0.48 μmol/l, 25% ethylene glycol) [M⁻¹ s⁻¹]","kkat /Km (rFIXa (human); rFIXa 0.48 μmol/l, 33% ethylene glycol) [M⁻¹ s⁻¹]","kkat /Km (rFIXa (human); rFIXa 0.48 μmol/l, 41% ethylene glycol) [M⁻¹ s⁻¹]","kkat /Km (rFIXa (human); rFIXa 0.48 μmol/l, 50% ethylene glycol) [M⁻¹ s⁻¹]",Structure (SMILES)
637,1974,2880,3480,1929,576,,,,,,,,,,,,,"CS(=O)(=O)N[C@@H](C(=O)NCC(=O)N[C@@H](CCCNC(=N)N)C(=O)Nc1ccc([N+](=O)[O-])cc1)C1CCCCC1 [MeSO2 --D--CHG--Gly--Arg--pNA, MeSO2 -D-CHG-Gly-Arg-pNA] (Ms-[dChg]-Gly-Arg-pNA)"
,,,,,,299,737,1169,1395,922,390,348,515,1018,1018,692,172,"CS(=O)(=O)N[C@H](CC1CCC(O)CC1)C(=O)NCC(=O)N[C@@H](CCCNC(=N)N)C(=O)Nc1ccc([N+](=O)[O-])cc1 (stereo partly drawn) [MeSO2 --D--HHT--Gly--Arg--pNA, MeSO2 -D-HHT-Gly-Arg-pNA]"
